# Literature values in patent US20220401449A1, “COMPOSITIONS PROVIDING SLOW RELEASE OF CAFFEINE AND BEVERAGES COMPRISING THE SAME” (priority 2021, published 2022).
# Where two headings read alike, the source gives them in different places.
smiles,measurement,setting,value
Cn1c(=O)c2c(ncn2C)n(C)c1=O [caffeine],caffeine's saturation concentration in water,80° C.,about 200 mg/ml
same,caffeine's saturation concentration in water,room temperature,about 16 mg/ml
